{
  "source": "paper PMC4308083",
  "about": "“Cytokine-Induced Loss of Glucocorticoid Function: Effect of Kinase Inhibitors, Long-Acting β2-Adrenoceptor Agonist and Glucocorticoid Receptor Ligands” (PLoS ONE, 2015)",
  "key": {"[1]": {"tested_on": "CDKN1C, DUSP1, RGS2 and TSC22D3 mRNA in BEAS-2B cells", "assay": "RT-PCR of glucocorticoid-inducible gene expression in BEAS-2B cells", "settings": "JNK inhibitor VIII 3 or 10 μM, PS-1145 10 μM, 6 h (Fig. 7)", "experimental": "Cells were harvested 6 h after Dex addition.\nBEAS-2B cells were pre-treated for 30 min with either 10 or 3 μM of the JNK MAPK inhibitor JNK inhibitor VIII (JNK) or 10 μM of the IKK2 inhibitor PS-1145 (PS), before addition of 10 ng/ml tumor necrosis factor-α (TNF).\nCells were harvested 6 h after NR3C1 ligand addition."}, "[2]": {"tested_on": "JUN (c-Jun) phosphorylation", "assay": "Western blot of TNF-induced JUN phosphorylation in BEAS-2B cells", "type": "cell-based, human", "settings": "30 min pre-treatment, TNF 10 ng/ml 15 min, western blot (S1 Fig.), read-out: EC50 for decrease of TNF-induced JUN phosphorylation", "text": "Cells were lysed in 1× Laemmli buffer supplemented with phosphatase inhibitors (Sigma-Aldrich) and 1× complete protease inhibitor cocktail (Roche; Indianapolis, IN), size fractionated on 12% acrylamide gels and subsequently electro-transferred onto Hybond enhanced chemiluminescent membranes (GE Healthcare; Waukesha, WI). Membranes were blocked in 5% milk in tris-buffered saline containing 1% tween 20 and probed with antibodies against phospho-jun proto-oncogene (pJUN; pc-Jun) (9164; Cell Signaling Technology; Danvers, MA), nuclear factor of kappa light polypeptide gene enhancer in B-cells inhibitor, alpha (NFKBIA; IκBα) (sc-371; Santa Cruz Biotechnology; Dallas, TX), phospho-NFKBIA (9246; Cell Signaling Technology), phospho-AKT1 (9271S; Cell Signaling Technology), AKT (9272S; Cell Signaling Technology) and GAPDH (4699–9555(ST); AbD Serotec; Raleigh, NC). After washing, membranes were incubated with horseradish peroxidase-conjugated anti-rabbit (111–035–003; Jackson ImmunoResearch Laboratories Inc; West Grove, PA) or anti-mouse immunoglobulin (115–035–003; Jackson ImmunoResearch Laboratories Inc). Detection was by enhanced chemiluminescence (Pierce ECL Western Blotting Substrate; Thermo Fisher Scientific Inc.; Rockford, IL) and visualization by autoradiography. […]"}, "2×GRE reporter": {"tested_on": "2×GRE reporter", "assay": "Modulation of dexamethasone/NR3C1 ligand-induced 2×GRE reporter activation (kinase inhibitors, TNF, formoterol) in BEAS-2B cells", "type": "cell-based, human", "settings": "dexamethasone", "procedure": "BEAS-2B cells stably transfected with a glucocorticoid response element (2×GRE) driven luciferase reporter plasmid, pGL3.neo.TATA.neo [23], were cultured in medium containing 0.25 mg/ml G-418 (Promega, Madison, WI). Cells were grown to confluence in 24 or 48 well plates and incubated overnight in serum-free media prior to experiments. Cells were harvested in reporter lysis buffer and luciferase assays performed according to the manufacturer’s instructions (Firefly Luciferase Assay Kit; Biotium; Hayward, CA) using a 20/20n luminometer (Promega).\nData (n = 7), expressed as a percentage of Dex activation, are plotted as means ± S.E. BEAS-2B 2×GRE cells were pre-treated for 30 min with the indicated concentrations of B. PS or JNK or C. JNK in the presence or absence of 10 μM PS, before addition of 10 ng/ml TNF. After 1 h, 10 μM Dex was added and cells harvested 6 h later for luciferase assay. […] D+T indicates Dex plus TNF treatment.\nData (n = 3–4), expressed as fold activation, are plotted as means ± S.E. D+T indicates Dex plus TNF treatment.\nCells were harvested after 6 h for luciferase assays. Data (n = 7), expressed as fold activation, are plotted as means ± S.E. Lines of best fit were added in panel B. Statistical analyses were performed by ANOVA with a Dunnett’s test comparing each NR3C1 ligand alone versus in the presence of TNF and/or Form. *, P<0.05; **, P<0.01; ***, P<0.001."}},
  "note": "pEC50: −log10 of the molar value.",
  "data": [
    {"smiles": "CCOc1nc(NC(=O)Cc2cc(OC)ccc2OC)cc(N)c1C#N", "note": "[JNK inhibitor VIII]", "values": [
      {"measurement": "Effect on dexamethasone-induced mRNA expression of CDKN1C, DUSP1, RGS2, TSC22D3 in absence or presence of TNF", "setting": "[1]", "result": "no significant effect"},
      {"measurement": "pEC50", "setting": "[2]", "result": "~6.52"},
      {"measurement": "2×GRE reporter induction restored in presence of TNF, % of that induced by dexamethasone", "setting": "2×GRE reporter; 10 μM inhibitor 30 min pre-treatment, TNF 10 ng/ml, 6 h (Fig. 3A)", "result": 77, "unit": "%"},
      {"measurement": "Effect on dexamethasone-induced 2×GRE reporter activation (concentration-response)", "setting": "2×GRE reporter; 30 min pre-treatment, 6 h (Fig. 3B, Fig. 4), JNK inhibitor VIII only at 30 μM, PKC inhibitors above 1 μM", "result": "modestly enhanced"},
      {"measurement": "TNF-induced repression reversed to % of the response to dexamethasone", "setting": "2×GRE reporter; concentration-response, TNF 10 ng/ml, 6 h (Fig. 3B), repression ~60% without inhibitor", "result": 87, "unit": "%"},
      {"measurement": "pEC50", "setting": "2×GRE reporter; read-out: EC50 for reversal of TNF-induced repression of 2×GRE reporter, TNF 10 ng/ml, 6 h (Fig. 3B)", "result": 5.80}
    ]}
  ]
}
